# Columns and labels:
# [1] = molecular target: T1, Sodium- and chloride-dependent taurine transporter (Homo sapiens, UniProt P31641); assay: Inhibition of human TauT
# T1 sequence (P31641 whole entry): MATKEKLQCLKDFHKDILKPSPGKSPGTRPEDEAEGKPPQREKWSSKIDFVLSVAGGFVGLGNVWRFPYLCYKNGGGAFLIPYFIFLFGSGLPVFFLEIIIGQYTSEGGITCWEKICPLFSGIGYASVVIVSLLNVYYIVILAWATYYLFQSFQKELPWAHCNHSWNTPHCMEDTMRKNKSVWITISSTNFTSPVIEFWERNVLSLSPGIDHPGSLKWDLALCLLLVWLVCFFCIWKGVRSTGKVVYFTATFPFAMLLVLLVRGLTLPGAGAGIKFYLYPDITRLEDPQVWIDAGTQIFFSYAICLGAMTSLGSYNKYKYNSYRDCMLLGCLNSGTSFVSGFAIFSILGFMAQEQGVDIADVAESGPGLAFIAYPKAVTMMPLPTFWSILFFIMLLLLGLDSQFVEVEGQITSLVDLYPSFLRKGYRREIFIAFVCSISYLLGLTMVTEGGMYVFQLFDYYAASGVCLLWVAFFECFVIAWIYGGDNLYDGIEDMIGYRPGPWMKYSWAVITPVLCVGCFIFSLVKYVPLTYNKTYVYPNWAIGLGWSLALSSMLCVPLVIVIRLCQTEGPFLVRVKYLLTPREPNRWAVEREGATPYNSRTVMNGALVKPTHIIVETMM
# [2] = molecular target: T2, Sodium- and chloride-dependent glycine transporter 2 (Homo sapiens, UniProt Q9Y345); assay: Inhibition of human GlyT2
# T2 sequence (Q9Y345 whole entry): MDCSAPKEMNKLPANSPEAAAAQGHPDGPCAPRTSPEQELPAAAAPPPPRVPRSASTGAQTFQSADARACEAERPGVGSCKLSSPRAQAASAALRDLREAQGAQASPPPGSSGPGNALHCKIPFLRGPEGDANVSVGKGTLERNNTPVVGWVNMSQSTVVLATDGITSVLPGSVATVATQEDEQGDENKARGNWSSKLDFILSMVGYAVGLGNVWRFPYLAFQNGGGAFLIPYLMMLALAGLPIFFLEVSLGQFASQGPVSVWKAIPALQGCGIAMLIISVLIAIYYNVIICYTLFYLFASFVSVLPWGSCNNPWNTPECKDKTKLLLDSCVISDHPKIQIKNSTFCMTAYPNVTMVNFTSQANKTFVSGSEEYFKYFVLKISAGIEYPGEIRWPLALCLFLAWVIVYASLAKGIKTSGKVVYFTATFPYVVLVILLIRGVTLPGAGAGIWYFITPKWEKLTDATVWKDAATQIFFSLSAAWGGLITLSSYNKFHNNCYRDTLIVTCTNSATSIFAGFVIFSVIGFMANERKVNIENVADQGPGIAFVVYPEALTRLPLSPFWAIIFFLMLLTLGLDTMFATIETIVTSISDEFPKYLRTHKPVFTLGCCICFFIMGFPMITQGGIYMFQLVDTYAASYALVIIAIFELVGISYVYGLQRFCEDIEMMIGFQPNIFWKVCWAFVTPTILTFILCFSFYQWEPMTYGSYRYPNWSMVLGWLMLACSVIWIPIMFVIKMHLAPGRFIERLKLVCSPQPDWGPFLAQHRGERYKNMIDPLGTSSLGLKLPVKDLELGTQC
# [3] = molecular target: T3, Sodium- and chloride-dependent glycine transporter 1 (Homo sapiens, UniProt P48067); assay: Inhibition of human GlyT1
# T3 sequence (P48067 whole entry): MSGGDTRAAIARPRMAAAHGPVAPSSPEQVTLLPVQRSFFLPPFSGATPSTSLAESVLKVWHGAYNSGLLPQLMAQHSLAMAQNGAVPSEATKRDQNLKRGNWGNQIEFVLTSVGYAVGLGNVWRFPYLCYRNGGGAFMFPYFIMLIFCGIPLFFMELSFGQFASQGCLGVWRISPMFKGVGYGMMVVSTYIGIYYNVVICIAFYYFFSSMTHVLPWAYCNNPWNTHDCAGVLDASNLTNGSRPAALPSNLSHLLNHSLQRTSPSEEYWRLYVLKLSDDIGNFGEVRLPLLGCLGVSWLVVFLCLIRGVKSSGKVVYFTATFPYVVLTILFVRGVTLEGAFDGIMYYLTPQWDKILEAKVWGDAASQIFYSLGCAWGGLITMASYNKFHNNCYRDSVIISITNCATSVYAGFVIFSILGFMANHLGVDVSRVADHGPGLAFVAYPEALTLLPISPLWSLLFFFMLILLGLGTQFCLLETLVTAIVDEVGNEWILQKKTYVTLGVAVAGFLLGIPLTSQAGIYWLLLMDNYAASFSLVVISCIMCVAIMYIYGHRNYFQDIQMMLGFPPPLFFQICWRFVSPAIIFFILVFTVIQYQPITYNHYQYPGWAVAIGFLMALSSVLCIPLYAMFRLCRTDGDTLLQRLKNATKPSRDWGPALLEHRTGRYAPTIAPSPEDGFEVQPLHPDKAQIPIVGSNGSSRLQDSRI
# [4] = Half life in rat; format: ADME, organism-based; settings: in vivo
# [5] = Apparent permeability in Caco-2 cells; format: ADME, cell-based; settings: human
# Cytochrome P450 2D6 = Cytochrome P450 2D6 (Homo sapiens, UniProt P10635); assay: Inhibition of CYP2D6; format: ADME
# Cytochrome P450 2D6, sequence (P10635 whole entry): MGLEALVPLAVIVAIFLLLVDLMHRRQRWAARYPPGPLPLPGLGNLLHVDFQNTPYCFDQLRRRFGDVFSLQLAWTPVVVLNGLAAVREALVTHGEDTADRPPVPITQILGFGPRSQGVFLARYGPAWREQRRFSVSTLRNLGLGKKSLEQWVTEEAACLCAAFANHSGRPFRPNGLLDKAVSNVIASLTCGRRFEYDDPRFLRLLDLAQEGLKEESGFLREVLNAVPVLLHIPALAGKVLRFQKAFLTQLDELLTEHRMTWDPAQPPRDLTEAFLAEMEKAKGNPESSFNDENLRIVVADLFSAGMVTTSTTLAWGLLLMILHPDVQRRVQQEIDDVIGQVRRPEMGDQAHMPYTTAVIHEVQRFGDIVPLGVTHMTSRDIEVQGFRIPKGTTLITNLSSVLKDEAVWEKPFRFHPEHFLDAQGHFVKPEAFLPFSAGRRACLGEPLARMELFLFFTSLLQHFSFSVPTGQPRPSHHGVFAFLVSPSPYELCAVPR
# Cytochrome P450 3A4 = Cytochrome P450 3A4 (Homo sapiens, UniProt P08684); assay: Inhibition of CYP3A4; format: ADME
# Cytochrome P450 3A4, sequence (P08684 whole entry): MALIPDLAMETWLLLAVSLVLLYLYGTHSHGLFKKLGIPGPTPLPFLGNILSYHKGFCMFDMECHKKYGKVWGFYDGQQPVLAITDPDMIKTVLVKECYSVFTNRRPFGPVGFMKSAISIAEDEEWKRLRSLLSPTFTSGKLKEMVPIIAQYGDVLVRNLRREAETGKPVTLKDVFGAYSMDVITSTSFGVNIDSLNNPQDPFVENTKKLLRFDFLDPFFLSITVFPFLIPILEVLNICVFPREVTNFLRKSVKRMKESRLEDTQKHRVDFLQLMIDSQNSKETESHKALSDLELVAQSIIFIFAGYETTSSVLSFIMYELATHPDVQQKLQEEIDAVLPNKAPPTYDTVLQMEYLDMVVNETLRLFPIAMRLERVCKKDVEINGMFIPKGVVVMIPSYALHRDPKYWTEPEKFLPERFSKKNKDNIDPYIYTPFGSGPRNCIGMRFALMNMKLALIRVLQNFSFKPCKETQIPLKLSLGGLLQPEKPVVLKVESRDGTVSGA
# [6] = Partition coefficient, log P of the compound; format: physicochemical; settings: octanol/water
# [7] = Clearance in rat; format: ADME, organism-based; settings: in vivo
# [8] = Aqueous solubility of the compound; format: physicochemical
# Caco-2 [9] = assay: Ratio of permeability from basolateral to apical over apical to basolateral side of Caco-2 cell expressing mouse p-glycoprotein; format: ADME, cell-based; settings: human
# Cytochrome P450 2C9 = Cytochrome P450 2C9 (Homo sapiens, UniProt P11712); assay: Inhibition of CYP2C9; format: ADME
# Cytochrome P450 2C9, sequence (P11712 whole entry): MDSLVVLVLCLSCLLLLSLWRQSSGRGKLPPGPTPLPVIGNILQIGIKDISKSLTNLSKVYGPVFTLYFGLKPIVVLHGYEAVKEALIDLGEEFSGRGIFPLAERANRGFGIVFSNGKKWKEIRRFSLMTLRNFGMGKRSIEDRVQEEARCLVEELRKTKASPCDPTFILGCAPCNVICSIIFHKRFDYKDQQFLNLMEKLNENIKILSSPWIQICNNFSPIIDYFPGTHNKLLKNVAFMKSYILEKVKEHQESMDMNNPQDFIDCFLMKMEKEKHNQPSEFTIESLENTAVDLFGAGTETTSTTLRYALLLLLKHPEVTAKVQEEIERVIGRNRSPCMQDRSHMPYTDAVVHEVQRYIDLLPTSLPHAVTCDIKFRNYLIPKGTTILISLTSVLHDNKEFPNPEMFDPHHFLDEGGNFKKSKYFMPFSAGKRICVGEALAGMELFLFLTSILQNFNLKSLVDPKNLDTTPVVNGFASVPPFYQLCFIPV
# Caco-2 [10] = assay: Ratio of permeability from basolateral to apical over apical to basolateral side of Caco-2 cell expressing human p-glycoprotein; format: ADME, cell-based
smiles,measurement,setting,value
CCCS(=O)(=O)N1CCC(CNC(=O)c2ccc(Cl)cc2Cl)(C(=O)N2CCC(N(C)C)C2)CC1 (centres undefined),IC50,[1],> 30 µM
same,IC50,[2],> 30 µM
same,IC50,[3],0.544 µM
CCCS(=O)(=O)N1CCC(CNC(=O)c2ccccc2)(C(=O)N2CCOCC2)CC1,IC50,[1],> 30 µM
same,half-life,[4],18 min
same,Papp,[5],> 22 ×10⁻⁶ cm/s
same,IC50,[2],> 30 µM
same,Activity,Cytochrome P450 2D6,Not Active
same,Activity,Cytochrome P450 3A4,Not Active
same,logP,[6],< 1.4
same,clearance,[7],18 mL/min/kg
same,solubility,[8],10000 µg/mL
same,Ratio,Caco-2 [9],8.9
same,IC50,[3],0.264 µM
same,Activity,Cytochrome P450 2C9,Not Active
same,Ratio,Caco-2 [10],10.6
CCCS(=O)(=O)N1CCC(CNC(=O)c2ccc(Cl)cc2Cl)(C(=O)N(C)C)CC1,IC50,[1],> 30 µM
same,IC50,[2],> 30 µM
same,IC50,[3],0.181 µM
CCCS(=O)(=O)N1CCC(CNC(=O)c2c(F)cccc2F)(C(=O)N2CCOCC2)CC1,IC50,[1],> 30 µM
same,half-life,[4],18 min
same,Papp,[5],> 22 ×10⁻⁶ cm/s
same,IC50,[2],> 30 µM
same,Activity,Cytochrome P450 2D6,Not Active
same,Activity,Cytochrome P450 3A4,Not Active
same,logP,[6],< 1.4
same,clearance,[7],18 mL/min/kg
same,solubility,[8],10000 µg/mL
same,Ratio,Caco-2 [9],8.9
same,IC50,[3],0.131 µM
same,Activity,Cytochrome P450 2C9,Not Active
same,Ratio,Caco-2 [10],10.6
CCCS(=O)(=O)N1CCC(CNC(=O)c2ccc(F)cc2C(F)(F)F)(C(=O)N2CCOCC2)CC1,IC50,[1],> 30 µM
same,half-life,[4],18 min
same,Papp,[5],> 22 ×10⁻⁶ cm/s
same,IC50,[2],> 30 µM
same,Activity,Cytochrome P450 2D6,Not Active
same,Activity,Cytochrome P450 3A4,Not Active
same,logP,[6],< 1.4
same,clearance,[7],18 mL/min/kg
same,solubility,[8],10000 µg/mL
same,Ratio,Caco-2 [9],8.9
same,IC50,[3],0.0678 µM
same,Activity,Cytochrome P450 2C9,Not Active
same,Ratio,Caco-2 [10],10.6
CCCS(=O)(=O)N1CCC(CNC(=O)c2ccc(Cl)cc2Cl)(C(=O)N2CC(N)C2)CC1,IC50,[1],> 30 µM
same,IC50,[2],> 30 µM
same,IC50,[3],0.109 µM
CCCS(=O)(=O)N1CCC(CNC(=O)c2ccc(Cl)cc2Cl)(C(=O)C2CC2)CC1,IC50,[1],> 30 µM
same,IC50,[2],> 30 µM
same,IC50,[3],0.472 µM
CCCS(=O)(=O)N1CCC(C(=O)N2CCOCC2)([C@@H](C)NC(=O)c2ccc(Cl)cc2Cl)CC1,IC50,[3],> 5 µM
CCCS(=O)(=O)N1CCC(C(=O)N2CCOCC2)([C@H](C)NC(=O)c2ccc(Cl)cc2Cl)CC1,IC50,[3],> 5 µM
CCCS(=O)(=O)N1CCC(CNC(=O)C2CC2)(C(=O)N2CCOCC2)CC1,IC50,[1],> 30 µM
same,half-life,[4],18 min
same,Papp,[5],> 22 ×10⁻⁶ cm/s
same,IC50,[2],> 30 µM
same,Activity,Cytochrome P450 2D6,Not Active
same,Activity,Cytochrome P450 3A4,Not Active
same,logP,[6],< 1.4
same,clearance,[7],18 mL/min/kg
same,solubility,[8],10000 µg/mL
same,Ratio,Caco-2 [9],8.9
same,IC50,[3],> 5 µM
same,Activity,Cytochrome P450 2C9,Not Active
same,Ratio,Caco-2 [10],10.6
CCCS(=O)(=O)N1CCC(CNC(=O)c2ccc(Cl)cc2Cl)(C(=O)N2CCN(C)CC2)CC1,IC50,[1],> 30 µM
same,IC50,[2],> 30 µM
same,IC50,[3],> 5 µM
CCCS(=O)(=O)N1CCC(CNC(=O)c2ccccc2OC(F)(F)F)(C(=O)N2CCOCC2)CC1,IC50,[1],> 30 µM
same,half-life,[4],18 min
same,Papp,[5],> 22 ×10⁻⁶ cm/s
same,IC50,[2],> 30 µM
same,Activity,Cytochrome P450 2D6,Not Active
same,Activity,Cytochrome P450 3A4,Not Active
same,logP,[6],< 1.4
same,clearance,[7],18 mL/min/kg
same,solubility,[8],10000 µg/mL
same,Ratio,Caco-2 [9],8.9
same,IC50,[3],0.0884 µM
same,Activity,Cytochrome P450 2C9,Not Active
same,Ratio,Caco-2 [10],10.6
CCCS(=O)(=O)N1CCC(CNC(=O)c2ccc(Cl)cc2Cl)(C(=O)NCC2(C)COC2)CC1,IC50,[1],> 30 µM
same,IC50,[2],> 30 µM
same,IC50,[3],0.069 µM
CCCS(=O)(=O)N1CCC(CNC(=O)c2ccc(Cl)cc2Cl)(C(=O)NCC)CC1,IC50,[1],> 30 µM
same,IC50,[2],> 30 µM
same,IC50,[3],0.517 µM
CCCS(=O)(=O)N1CCC(CNC(=O)c2ccc(C(F)(F)F)cc2F)(C(=O)N2CCOCC2)CC1,IC50,[1],> 30 µM
same,half-life,[4],18 min
same,Papp,[5],> 22 ×10⁻⁶ cm/s
same,IC50,[2],> 30 µM
same,Activity,Cytochrome P450 2D6,Not Active
same,Activity,Cytochrome P450 3A4,Not Active
same,logP,[6],< 1.4
same,clearance,[7],18 mL/min/kg
same,solubility,[8],10000 µg/mL
same,Ratio,Caco-2 [9],8.9
same,IC50,[3],0.0428 µM
same,Activity,Cytochrome P450 2C9,Not Active
same,Ratio,Caco-2 [10],10.6
CCCS(=O)(=O)N1CCC(CNC(=O)CC)(C(=O)N2CCOCC2)CC1,IC50,[1],> 30 µM
same,half-life,[4],18 min
same,Papp,[5],> 22 ×10⁻⁶ cm/s
same,IC50,[2],> 30 µM
same,Activity,Cytochrome P450 2D6,Not Active
same,Activity,Cytochrome P450 3A4,Not Active
same,logP,[6],< 1.4
same,clearance,[7],18 mL/min/kg
same,solubility,[8],10000 µg/mL
same,Ratio,Caco-2 [9],8.9
same,IC50,[3],> 5 µM
same,Activity,Cytochrome P450 2C9,Not Active
same,Ratio,Caco-2 [10],10.6

# From ChEMBL document CHEMBL1145293, “Synthesis and SAR of GlyT1 inhibitors derived from a series of N-((4-(morpholine-4-carbonyl)-1-(propylsulfonyl)piperidin-4-yl)methyl)benzamides” (Bioorg Med Chem Lett, 2006)
